Results taken from ChEMBL document CHEMBL4130350, “Discovery, mechanism and metabolism studies of 2,3-difluorophenyl-linker-containing PARP1 inhibitors with enhanced in vivo efficacy for cancer therapy” (Eur J Med Chem, 2017).
Calls of active or inactive are those of the source. The calls are words filed in the database; no cut-off is given here.

Legend:
[1] = Half life in Sprague-Dawley rat at 5 mg/kg, iv by LC-MS/MS analysis; format: ADME, organism-based; conditions: in vivo
[2] = Cytotoxicity against BRCA2 deficient Chinese hamster VC8 cells after 3 days by CCK8 or SRB assay; format: functional, cell-based; conditions: Cricetulus griseus, V-C8, 72 h
CAPAN-1 [3] = test: Cell cycle arrest in human Capan1 cells assessed as accumulation at G2/M phase at 10 uM after 72 hrs by propidium iodide-staining based flow cytometry (reference value: 15.26%); format: functional
CAPAN-1 [4] = test: Cell cycle arrest in human Capan1 cells assessed as accumulation at S phase at 0.1 uM after 72 hrs by propidium iodide-staining based flow cytometry (reference value: 21.42%); format: functional
[5] = AUC in Sprague-Dawley rat at 5 mg/kg, iv by LC-MS/MS analysis; format: ADME, organism-based; conditions: in vivo
[6] = Apparent permeability across basolateral to apical side in human Caco2 cells after 2 hrs by LC-MS/MS analysis; format: ADME, cell-based; conditions: Caco-2
MDA-MB-436 [7] = test: Induction of apoptosis in human MDA-MB-436 cells assessed as late apoptotic cells at 0.1 uM after 96 hrs by Annexin V-FITC/propidium iodide double-staining based flow cytometery (reference value: 5.61%); format: functional
CAPAN-1 [8] = test: Antitumor activity against human Capan1 cells harboring BRCA2 mutant xenografted in nude BALB/cA mouse assessed as tumor growth inhibition at 40 mg/kg, po administered once daily for 21 consecutive days measured twice per week; format: functional; conditions: CAPAN-1, po, read-out: TGI
[9] = molecular target: T1, Poly [ADP-ribose] polymerase 1 (Homo sapiens, UniProt P09874); test: Inhibition of PARP1 in human Capan1 cells assessed as increase in formation of phosphorylated ATM foci in cells at 10 uM after 48 hrs by confocal microscopy; format: cell-based
[10] = molecular target: T1, Poly [ADP-ribose] polymerase 1; test: Inhibition of PARP1 (unknown origin) by ELISA
Mus musculus = test: Toxicity in nude BALB/cA mouse xenografted with human Capan1 cells harboring BRCA2 mutant assessed as weight loss at 40 mg/kg, po administered once daily for 21 consecutive days measured twice per week; format: organism-based; conditions: in vivo
[11] = Apparent permeability across basolateral to apical side in human Caco2 cells assessed as drug recovery at 16870 pmol after 2 hrs by LC-MS/MS analysis; format: ADME, cell-based; conditions: Caco-2, read-out: Drug recovery
[12] = Drug metabolism in mouse liver microsomes assessed as oxidative metabolite formation at 2 uM up to 60 mins in presence of NADPH by LC-MS/MS analysis; format: ADME, microsome; conditions: 1 h
[13] = molecular target: T1, Poly [ADP-ribose] polymerase 1; test: Inhibition of PARP1 in human Capan1 cells assessed as increase in phosphorylated chk1 protein levels at 0.1 to 1 uM after 48 hrs by Western blot analysis; format: cell-based
MDA-MB-436 [14] = test: Induction of apoptosis in human MDA-MB-436 cells assessed as late apoptotic cells at 1 uM after 96 hrs by Annexin V-FITC/propidium iodide double-staining based flow cytometery (reference value: 5.61%); format: functional
CAPAN-1 [15] = test: Effect on total chk1 protein levels in human Capan1 cells at 0.1 to 1 uM after 48 hrs by Western blot analysis; format: ADME, cell-based; conditions: capan-1, 48 h
CAPAN-1 [16] = test: Antiproliferative activity against human Capan1 cells after 7 days by CCK8 or SRB assay; format: functional, cell-based; conditions: CAPAN-1, 168 h
MDA-MB-436 [17] = test: Induction of apoptosis in human MDA-MB-436 cells assessed as early apoptotic cells at 1 uM after 96 hrs in presence of pancaspase inhibitor Z-VAD-FMK by Annexin V-FITC/propidium iodide double-staining based flow cytometery (reference value: 2.32%); format: functional
[18] = AUC in Sprague-Dawley rat at 10 mg/kg, po by LC-MS/MS analysis; format: ADME, organism-based; conditions: in vivo
CAPAN-1 [19] = test: Cell cycle arrest in human Capan1 cells assessed as accumulation at S phase at 1 uM after 72 hrs by propidium iodide-staining based flow cytometry (reference value: 21.42%); format: functional
[20] = Half life in Sprague-Dawley rat at 10 mg/kg, po by LC-MS/MS analysis; format: ADME, organism-based; conditions: in vivo
MDA-MB-436 [21] = test: Induction of apoptosis in human MDA-MB-436 cells assessed as late apoptotic cells at 0.1 uM after 96 hrs in presence of pancaspase inhibitor Z-VAD-FMK by Annexin V-FITC/propidium iodide double-staining based flow cytometery (reference value: 5.11%); format: functional
CAPAN-1 [22] = test: Cell cycle arrest in human Capan1 cells assessed as accumulation at G2/M phase at 0.1 uM after 72 hrs by propidium iodide-staining based flow cytometry (reference value: 15.26%); format: functional

T1 sequence (P09874 whole entry): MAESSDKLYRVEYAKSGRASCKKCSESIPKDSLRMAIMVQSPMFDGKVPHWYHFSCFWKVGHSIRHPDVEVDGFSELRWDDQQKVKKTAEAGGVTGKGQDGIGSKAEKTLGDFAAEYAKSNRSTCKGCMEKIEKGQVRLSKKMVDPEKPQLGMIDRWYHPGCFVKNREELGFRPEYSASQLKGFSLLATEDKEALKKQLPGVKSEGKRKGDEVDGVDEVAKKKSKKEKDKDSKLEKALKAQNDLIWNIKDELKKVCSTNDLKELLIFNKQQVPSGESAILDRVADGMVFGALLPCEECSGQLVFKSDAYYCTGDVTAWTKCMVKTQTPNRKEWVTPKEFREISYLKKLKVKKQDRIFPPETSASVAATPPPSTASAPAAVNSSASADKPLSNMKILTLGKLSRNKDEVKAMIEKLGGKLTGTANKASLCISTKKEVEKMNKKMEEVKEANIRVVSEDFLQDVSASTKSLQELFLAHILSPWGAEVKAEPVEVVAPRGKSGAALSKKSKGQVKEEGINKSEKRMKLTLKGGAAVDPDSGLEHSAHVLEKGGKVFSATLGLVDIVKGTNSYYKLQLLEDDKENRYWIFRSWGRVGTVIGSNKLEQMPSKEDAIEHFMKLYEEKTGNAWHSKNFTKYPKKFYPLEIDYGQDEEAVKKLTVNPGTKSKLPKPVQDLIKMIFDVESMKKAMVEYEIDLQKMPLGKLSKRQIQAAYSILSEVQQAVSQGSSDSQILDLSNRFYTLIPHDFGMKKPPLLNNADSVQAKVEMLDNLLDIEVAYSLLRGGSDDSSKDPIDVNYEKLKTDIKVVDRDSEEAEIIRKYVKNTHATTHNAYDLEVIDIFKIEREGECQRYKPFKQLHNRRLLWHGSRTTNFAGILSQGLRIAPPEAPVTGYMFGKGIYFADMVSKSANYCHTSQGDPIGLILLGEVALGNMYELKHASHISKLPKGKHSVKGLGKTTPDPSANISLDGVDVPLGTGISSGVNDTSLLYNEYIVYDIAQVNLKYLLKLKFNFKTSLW

**Q.** Which half-life [1] does the source give for `N#Cc1cccnc1N1CCN(C(=O)c2cc(Cc3n[nH]c(=O)c4ccccc34)cc(F)c2F)CC1` here?
**A.** 5.3 h

**Q.** What about the IC50 [2] of the same molecule?
**A.** 0.003 nM

**Q.** What about the Activity (CAPAN-1 [3]) of the same molecule?
**A.** 72.45%

**Q.** What about the Activity (CAPAN-1 [4]) of the same molecule?
**A.** 26.75%

**Q.** And the AUC [5]?
**A.** 1380 ng·h/mL

**Q.** And the Papp B→A at 2 h [6]?
**A.** 34.1 ×10⁻⁶ cm/s

**Q.** And the Activity (MDA-MB-436 [7])?
**A.** 29.32%

**Q.** What about the inhibition in vivo at 40 mg/kg (CAPAN-1 [8]) of the same molecule?
**A.** 48.1%

**Q.** What about the inhibition [9] of the same molecule?
**A.** Active

**Q.** And the IC50 [10]?
**A.** 1.3 nM

**Q.** And the Activity (Mus musculus)?
**A.** Non-Toxic

**Q.** What about the recovery at 2 h [11] of the same molecule?
**A.** 109%

**Q.** And the Drug metabolism [12]?
**A.** Metabolite_Detected

**Q.** And the inhibition [13]?
**A.** Active

**Q.** What about the Activity (MDA-MB-436 [14]) of the same molecule?
**A.** 32.34%

**Q.** And the Activity (CAPAN-1 [15])?
**A.** Non-Toxic

**Q.** And the IC50 (CAPAN-1 [16])?
**A.** 7.1 nM

**Q.** What about the Activity (MDA-MB-436 [17]) of the same molecule?
**A.** 6.61%

**Q.** And the AUC [18]?
**A.** 130 ng·h/mL

**Q.** And the Activity (CAPAN-1 [19])?
**A.** 27.67%

**Q.** What about the half-life [20] of the same molecule?
**A.** 3 h

**Q.** And the Activity (MDA-MB-436 [21])?
**A.** 17.99%

**Q.** And the Activity (CAPAN-1 [22])?
**A.** 17.33%
